Experimental data from patent US20240130988A1, “Use of stilbene compounds in the preparation of anti-tumor drugs” (Guangzhou AnHao Pharmaceutical Technology CO., LTD., priority 2022, published 2024).
Marks after values point to notes of the source that are not given here.

How the values were obtained:
[1] = system: nonfusion human umbilical vein endothelial cells (HUVEC); assay: TMT quantitative proteomics on nonfusion HUVEC; type: cell-based; conditions: 10 μM; for Differentially expressed proteins: more than 1.5 times or less than 0.67 times vs control; for Down-regulation / Up-regulation: number of proteins
Method: Nonfusion human umbilical vein endothelial cells (HUVEC) were used to simulate new tumor blood vessels, while confluent HUVECs were used to simulate normal blood vessels, to construct experimental models. Two different HUVECs were treated with the compound at the same dosage of 10 μM, to simulate the fusion cell state, and proteome samples were prepared. After preparation of peptide segments, the segments were labelled with TMT, and a quantitative proteomics analysis was carried out. The efficiency of TMT labeling was higher than 99.4%, and a total of 28372 peptide segments from 4934 proteins were characterized using a strict 1% FDR limit. Among them, 4909 quantifiable proteins were identified, indicating reliable quality. The nonfusion treatment groups and the fusion treatment groups were compared with their respective control groups, and the control group was used as a reference, with a significant difference of more than 1.5 times or less than 0.67 times as the protein score standard.
The total cell proteins of the samples in nonfusion cell groups and fusion cell groups were extracted separately, and 2 μg of protein samples were subjected to quality analysis, The quantitative proteomics experiments were carried out, and the protein concentration assay was performed by quantitative grayscale measurement.
Data analysis: The human protein database (Scientific name: Homo sapiens, 9606) was downloaded from UniProt, MaxQuant (v 1.5.5.1) search engine was used to search for the database. A total of 4934 proteins (4909 quantitative proteins) and 28372 peptide segments were identified by TMT quantitative proteomics experiments, with a labeling efficiency of more than 99%, and the complete digestion occupied 86.3%.

[2] = system: LLC (mouse lung cancer cells); assay: Enrichment of CD8+ cytotoxic T lymphocytes in tumor tissue, Lewis non-small cell lung cancer model of mice; type: in vivo; conditions: 400 mg/kg ip once a day for 10 days, flow cytometry
Method: LLC (mouse lung cancer cells) were a mouse Lewis lung cancer cells.
The modeling method for LLC cell lung cancer in mice was as follows:
LLC cells were cultured in the general medium containing 10% fetal bovine serum and 100 μg/mL of double antibody (penicillin±streptomycin), and then cultivated in a 37° C., 5% CO2 cell incubator for routine incubation. LLC cells, that had grown to logarithmic phase, were digested with 0.25% trypsin (containing EDTA) to form a cell suspension, which was centrifuged at 1000 rpm/min for 3 min. The supernatant was discarded, and cell precipitates were collected, that were resuspended in culture medium without serum and double antibody. The cell suspension was further centrifuged to adjust the volume under the same conditions with the aid of cell counting, so as to prepare a cell suspension at a concentration of […] was injected into the right abdomen of each mouse, to complete the inoculation of tumor cells. The tumor was allowed to grew about 10 days, and the volume reached around 100 mm^3, before the mice were treated with test compounds.
Drug preparation: compounds 1-13 of the present invention were respective prepared into an injection with injection water.
Experimental methods: The model mice with LLC cell lung cancer were treated by intraperitoneal administration of 400 mg/kg injection containing the compound of the present invention. The model mice were divided into a negative control group (model mice only receiving equal volume of injection water by intraperitoneal administration) and treatment groups (model mice receiving the injection prepared with the compound of the present invention by intraperitoneal administration). The intraperitoneal injection regimen was carried out by injecting once a day at the pre-determined time. Before administration, the mice were weighed, and then treated with the injection at a dosage of 10 mL/kg, After successive administration for 10 days, that is, on the 10th day after receiving treatment, the mice were sacrificed, and the subcutaneous tumors were stripped to detect the ratio of cytotoxic T lymphocyte antigen CD8^+ in tumor tissues of the negative group and the treatment group by flow cytometry.
CD8^+ tumor-infiltrating lymphocytes in tumor tissues were detected by flow cytometry. The specific steps were as follows:
The mice were sacrificed, and then the abdominal epidermis of the mice was cut open using ophthalmic scissors, to fully expose the subcutaneous tumors. The subcutaneous tumor tissues on the right side of the mouse's abdomen were gradually peeled off with tweezers and ophthalmic scissors. After rinsing with PBS, the stripped tumor tissues were cut into about 1 mm using ophthalmic scissors, and then placed in 3 mL of PBS buffer containing 100 μg/mL of hyaluronidase. A centrifuge tube containing a dispersed liquid was placed in a water bath and kept at 37° C. for 20 min. A pipette was used to blow and shake the digestive tumor tissues every 5 minutes to fully digest. The dispersed liquid containing undigested tumor tissues was filtered through a 70 μm stainless steel cell screen, and the remaining undigested tumor tissues were ground using a push rod of 20 mL syringe on 70 μm cell screen and rinsed 5 times with 1 mL of PBS while grinding. The cell suspension passing the cell screen was transferred to a 15 mL centrifuge tube, and centrifuged at 4000 rpm for 3 min. Then, cell precipitates were collected, to which was added 2 mL of red cell lysis buffer, and rested for 10 min, followed by centrifuging at 4000 rpm for 3 min. After washing with PBS, the cells were resuspended by adding 2-3 mL of PBS.
An appropriate amount of cell suspension was used as the sample for flow cytometry, and after counting, the cell suspension was adjusted to have a concentration of 5×10^6/mL. 100 μL of cell suspension was added to a test tube with a pipettor. […]

[3] = system: human liver cancer QGY7703; assay: Human liver cancer QGY7703 transplanted tumor in nude mice; type: in vivo, BALB/C nude mice; parameters: key to RTV (d 18): RTV = Vt/Vo, tumor volume relative to volume at grouping (d1); conditions: QGY7703, 100 mg/kg iv × 14
Method: A human liver cancer QGY7703 model transplanted into nude mice was used in the experiment to investigate the anti-tumor effect of test compounds. The mice were intravenously injected at a dosage of 100 mg/kg for 14 days, and the tumor inhibition rate against human liver cancer QGY7703 was measured.
(§1) Preparation: The compound was prepared as the injection at the desired concentration with sterile normal saline, prior to administration.
Animal strain: BALB/C nude mice (SPF grade), weight: 19-21 g, gender: male. Number of animals in each treatment group: 8; number of animals in the control group: >12.
(§2) The tumor blocks of human liver cancer QGY7703 with good growth were cut into uniform small pieces of 3 mm under sterile conditions, and then subcutaneously inoculated into the right armpit of each mouse with a cannula. These mice were divided into 9 groups, 8 mice for each treatment group, while more than 12 mice were included in the control group.
(§3) 14 days after inoculation, the average volume of the tumor block was about 100 mm^3. The animals were regrouped based on the size of the tumor, and the animals with tumors that were too large and too small were sifted out. For each group, the average volume of tumors was basically the same, and then the mice were initially treated with test compounds. The mice in the treatment groups were intravenously injected once a day for 14 days, at a dosage of 0.1 mL/20 g body weight; the mice in the control group were given the same volume of sterile normal saline. From the 14th day of inoculation, the long diameter a (mm) of the tumor, together with the perpendicular short diameter b (mm), was measured using a digital electronic caliper, twice a week. The calculation formula of tumor volume is: TV=ab^2/2, and the formula for calculating the relative tumor volume is RTV=Vt/Vo, wherein Vo denotes the tumor volume measured when the mice were divided into groups (i.e. d1), and Vt is the tumor volume from each measurement.
(§4) The result determination is based on the following formula: […]

[4] = system: human renal cell carcinoma AGHN; assay: Human renal cell carcinoma AGHN transplanted tumor in nude mice; type: in vivo, BALB/C nude mice; conditions: 200 mg/kg ip × 14
Method: A human renal cell carcinoma AGHN model transplanted into nude mice was used in the experiment to investigate the anti-tumor effect of test compounds. […] AGHN was measured.
as §1
Animal strain: BALB/C, nude mice (SPF grade), weight: 19-21 g, gender: male. Number of animals in each treatment group: 8; number of animals in the control group: >12.
as §2, with “renal cell carcinoma AGHN” for “liver cancer QGY7703”, “The” for “These”, “>12” for “more than 12”
as §3, with “about 100 mm^3, The animals” for “about 100 mm^3. The animals”, “The mice were intraperitoneally” for “The mice in the treatment groups were intravenously”, “mice were intraperitoneally injected once” for “groups were intravenously injected once”, “dosage of 0.2 mL/20 g” for “dosage of 0.1 mL/20 g”, “tumor volume is: RTV=Vt/Vo, wherein” for “tumor volume is RTV=Vt/Vo, wherein”, “and Vt denotes the tumor” for “and Vt is the tumor”
as §4

[5] = system: LLC (mouse lung cancer cells); assay: Enrichment of CD8+ cytotoxic T lymphocytes in tumor tissue, Lewis non-small cell lung cancer model of mice; type: in vivo; conditions: 400 mg/kg ip once a day for 10 days, CD8+ immunohistochemistry
[6] = system: human ovarian cancer A2780; assay: Human ovarian cancer A2780 transplanted tumor in nude mice; type: in vivo, BALB/C nude mice; conditions: A2780, 200 mg/kg ip × 14
Method: A human ovarian cancer A2780 model transplanted into nude mice was used in the experiment to investigate the anti-tumor effect of test compounds.
as §1
Animal strain: BALB/C nude mice (SPF grade), weight: 19-21 g, gender: male.
Number of animals in each treatment group: 8; number of animals in the control group: >12.
as §2, with “ovarian” for “liver”, “A2780 growing well” for “QGY7703 with good growth”, “The” for “These”, “>12” for “more than 12”
as §3, with “mice” for “mice in the treatment groups”, “intraperitoneally” for “intravenously”, “0.2” for “0.1”
as §4

[7] = system: human lung cancer A549; assay: Human lung cancer A549 transplanted tumors in nude mice; type: in vivo, BALB/C nude mice; conditions: A549, 400 mg/kg ig × 14
Method: In this experiment, a human lung cancer A549 model transplanted into nude mice was selected to study the anti-tumor effect of test compounds. The mice were treated at a dosage of 400 mg/kg by gavage for 14 days, and the tumor inhibition rate against human lung cancer A549 was measured.
Preparation: The compound was prepared as the solution at the desired concentration with distilled water, prior to administration.
Animal strain: BALB/C nude mice (SPF grade), weight: 19-21 g, gender: male. Number of animals in each treatment group: 8; Number of animals in the control group: >12.
Lung cancer A549 tumor blocks with good growth were chosen and cut into uniform small pieces of 3 mm under sterile conditions, and then subcutaneously inoculated into the right armpit of each mouse with a cannula. These mice were divided into 9 groups, 8 mice for each treatment group, while more than 12 mice were included in the control group.
14 days after inoculation, the average volume of the tumor mass was about 100 mm^3. The animals were regrouped based on the size of the tumor, and the mice with tumors that were too large and too small were eliminated. For each group, the average volume of tumors was basically the same, and then the mice were treated with test compounds. The mice in the treatment groups were administered once a day by gavage for 14 successive days, at a dosage of 0.5 mL/20 g body weight; the mice in the control group were given the same volume of physiological saline. From the 14th day of inoculation, the long diameter a (mm) of the tumor, together with the perpendicular short diameter b (mm), was measured using a digital electronic caliper, twice a week. The calculation formula of tumor volume is: TV=ab^2/2, and the formula for calculating the relative tumor volume is RTV=Vt/Vo, wherein Vo denotes the tumor volume measured when the mice were divided into groups (i.e. d1), and Vt is the tumor volume from each measurement.
as §4

Compound | Differentially expressed proteins [1] | Down-regulation [1] | Up-regulation [1] | The ratio of CD8^+ in total immune cells of tumor tissues (%) [2] | inhibition in vivo at 100 mg/kg ([3]; Mus musculus, QGY-7703, read-out: Tumor inhibitory rate %) | RTV (d 18) [3] | RTV (d 18) [4] | Tumor inhibitory rate % [4] | The ratio of distribution area in tumor tissues (%) [5] | RTV (d 18) [6] | Tumor inhibitory rate % [6] | RTV (d 22) [7] | inhibition in vivo at 400 mg/kg ([7]; Mus musculus, po, read-out: Tumor inhibitory rate %)
COc1ccc(/C=C(/C(=O)O)c2cc(OC)c(OC)c(OC)c2)c(OC)c1O [Compound 12, (E)-3-(3-hydroxy-2,4-dimethoxyphenyl)-2-(3,4,5-trimethoxyphenyl)acrylic acid] | 322 | 314 | 8 | 0.0753 ± 0.0103% | 62.2% | 4.86 ± 0.59 | 5.62 ± 0.59 | 58.48^## % | 5.883 ± 0.6723% |  |  |  | 
CCOc1ccc(/C=C(/C(=O)O)c2cc(OC)c(OC)c(OC)c2)cc1O [Compound 13, (E)-3-(4-ethoxy-3-hydroxyphenyl)-2-(3,4,5-trimethoxyphenyl)acrylic acid] | 319 | 312 | 7 | 0.0723 ± 0.0126% |  |  |  |  | 6.547 ± 0.5843% | 4.78 ± 0.83 | 53.64^## % | 3.83 ± 0.64 | 67.4%
